ChEMBL document CHEMBL1201861, “Genomics of Drug Sensitity in Cancer screening data, Wellcome Trust Sanger Institute”

Columns and labels:
[1] = tested on: COR-L105; experiment: cells; type: functional, cell-based; details: Homo sapiens
Description: SANGER: Inhibition of human COR-L105 cell growth in a cell viability assay.

[2] = tested on: CP66-MEL; experiment: cells; type: functional, cell-based; details: Homo sapiens;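 note: growth inhibition of CP66-MEL cells determined in a cell viability assay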
Description: SANGER: Inhibition of human CP66-MEL cell growth in a cell viability assay.

[3] = tested on: Ca9-22; experiment: cells; type: functional, cell-based; details: Homo sapiens;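 note: growth inhibition of Ca9-22 cells, read out with a cell viability assay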
Description: SANGER: Inhibition of human Ca9-22 cell growth in a cell viability assay.

[4] = tested on: DMS-273; experiment: cells; type: functional, cell-based; details: Homo sapiens
Description: SANGER: Inhibition of human DMS-273 cell growth in a cell viability assay.

[5] = tested on: DOK; experiment: cells; type: functional, cell-based; details: Homo sapiens;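 note: cell viability assay read-out, values reflect inhibition of cell growth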
Description: SANGER: Inhibition of human DOK cell growth in a cell viability assay.

[6] = tested on: Detroit 562; experiment: cells; type: functional, cell-based; details: Homo sapiens;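 note: growth inhibition of human Detroit 562 cells, read out by a cell viability assay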
Description: SANGER: Inhibition of human Detroit562 cell growth in a cell viability assay.

[7] = tested on: ECC4; experiment: cells; type: functional, cell-based, Homo sapiens; details: Homo sapiens, ECC4;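 note: growth inhibition of ECC4 cells, read out with a cell viability assay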
Description: SANGER: Inhibition of human ECC4 cell growth in a cell viability assay.

[8] = tested on: EW-24; experiment: cells; type: functional, cell-based, Homo sapiens; details: Homo sapiens, EW-24;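 note: human EW-24 cancer cell line, growth inhibition read out via a cell viability assay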
Description: SANGER: Inhibition of human EW-24 cell growth in a cell viability assay.

[9] = tested on: HCC1395; experiment: cells; type: functional, cell-based; details: Homo sapiens;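 note: growth inhibition of HCC1395 cells, read out by a cell viability assay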
Description: SANGER: Inhibition of human HCC1395 cell growth in a cell viability assay.

[10] = tested on: HCC 2998; experiment: cells; type: functional, cell-based; details: Homo sapiens;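 note: growth inhibition of human HCC2998 cells, measured with a cell viability read-out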
Description: SANGER: Inhibition of human HCC2998 cell growth in a cell viability assay.

[11] = tested on: HT-29; experiment: cells; type: functional, cell-based; details: Homo sapiens;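 note: growth inhibition of human HT-29 cells, read out by a cell viability assay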
Description: SANGER: Inhibition of human HT-29 cell growth in a cell viability assay.

[12] = tested on: HuP-T3; experiment: cells; type: functional, cell-based; details: Homo sapiens;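 note: HuP-T3 cell growth inhibition, read out with a cell viability assay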
Description: SANGER: Inhibition of human HuP-T3 cell growth in a cell viability assay.

[13] = tested on: J82; experiment: cells; type: functional, cell-based; details: Homo sapiens;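 note: growth inhibition of J82 cells, read out with a cell viability assay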
Description: SANGER: Inhibition of human J82 cell growth in a cell viability assay.

[14] = tested on: JIYOYE; experiment: cells; type: functional, cell-based, Homo sapiens; details: Homo sapiens, JIYOYE
Description: SANGER: Inhibition of human JiyoyeP-2003 cell growth in a cell viability assay.

[15] = tested on: LB647-SCLC; experiment: cells; type: functional, cell-based, Homo sapiens; details: Homo sapiens, LB647-SCLC;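 note: cell growth inhibition, read out by a viability assay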
Description: SANGER: Inhibition of human LB647-SCLC cell growth in a cell viability assay.

[16] = tested on: MC-IXC; experiment: cells; type: functional, cell-based; details: Homo sapiens;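 note: growth inhibition of MC-IXC cells, read out with a cell viability assay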
Description: SANGER: Inhibition of human MC-IXC cell growth in a cell viability assay.

[17] = tested on: MDA-MB-157; experiment: cells; type: functional, cell-based; details: Homo sapiens
Description: SANGER: Inhibition of human MDA-MB-157 cell growth in a cell viability assay.

[18] = tested on: MDA-MB-415; experiment: cells; type: functional, cell-based; details: Homo sapiens
[19] = tested on: ME-180; experiment: cells; type: functional, cell-based; details: Homo sapiens;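 note: cell viability assay measuring growth inhibition of ME-180 cells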
Description: SANGER: Inhibition of human ME-180 cell growth in a cell viability assay.

[20] = tested on: NB1; experiment: cells; type: functional, cell-based, Homo sapiens; details: Homo sapiens, NB1;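 note: reduction of NB1 cell proliferation, read out with a viability assay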
Description: SANGER: Inhibition of human NB1 cell growth in a cell viability assay.

[21] = tested on: NCI-H1694; experiment: cells; type: functional, cell-based, Homo sapiens; details: Homo sapiens, NCI-H1694;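 note: cell viability assay measuring inhibition of growth in human NCI-H1694 cells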
Description: SANGER: Inhibition of human NCI-H1694 cell growth in a cell viability assay.

[22] = tested on: NCI-H1963; experiment: cells; type: functional, cell-based, Homo sapiens; details: Homo sapiens, NCI-H1963;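 note: cell growth inhibition of the human line, determined with a cell viability assay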
Description: SANGER: Inhibition of human NCI-H1963 cell growth in a cell viability assay.

[23] = tested on: NCI-H2009; experiment: cells; type: functional, cell-based; details: Homo sapiens;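 note: cell viability assay measuring inhibition of NCI-H2009 cell growth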
Description: SANGER: Inhibition of human NCI-H2009 cell growth in a cell viability assay.

[24] = tested on: NCI-H2347; experiment: cells; type: functional, cell-based; details: Homo sapiens;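 note: growth inhibition of the cell line, read out with a cell viability assay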
Description: SANGER: Inhibition of human NCI-H2347 cell growth in a cell viability assay.

[25] = tested on: NCI-H345; experiment: cells; type: functional, cell-based, Homo sapiens; details: Homo sapiens, NCI-H345;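 note: growth inhibition of NCI-H345 cells measured with a cell viability assay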
Description: SANGER: Inhibition of human NCI-H345 cell growth in a cell viability assay.

[26] = tested on: NCI-H650; experiment: cells; type: functional, cell-based; details: Homo sapiens;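 note: growth inhibition of NCI-H650 cells, read out by a viability assay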
Description: SANGER: Inhibition of human NCI-H650 cell growth in a cell viability assay.

[27] = tested on: NCI-H810; experiment: cells; type: functional, cell-based; details: Homo sapiens;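 note: IC50 reflects inhibition of cancer cell line growth, read out with a cell viability assay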
Description: SANGER: Inhibition of human NCI-H810 cell growth in a cell viability assay.

[28] = tested on: NCI-H889; experiment: cells; type: functional, cell-based, Homo sapiens; details: Homo sapiens, NCI-H889;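 note: cell growth inhibition of the cell line, read out with a viability assay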
Description: SANGER: Inhibition of human NCI-H889 cell growth in a cell viability assay.

[29] = tested on: SNU-16; experiment: cells; type: functional, cell-based, Homo sapiens; details: Homo sapiens, SNU-16;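 note: growth inhibition of human SNU-16 cells, determined with a cell viability readout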
Description: SANGER: Inhibition of human NCI-SNU-16 cell growth in a cell viability assay.

[30] = tested on: PA-1; experiment: cells; type: functional, cell-based; details: Homo sapiens;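 note: IC50 for suppression of PA-1 cell proliferation, determined with a cell viability read-out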
Description: SANGER: Inhibition of human PA-1 cell growth in a cell viability assay.

[31] = tested on: Panc1005; experiment: cells; type: functional, cell-based; details: Homo sapiens;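 note: growth inhibition of human PANC-10-05 cells, measured by a cell viability assay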
Description: SANGER: Inhibition of human PANC-10-05 cell growth in a cell viability assay.

[32] = tested on: RL; experiment: cells; type: functional, cell-based, Homo sapiens; details: Homo sapiens, RL
Description: SANGER: Inhibition of human RL cell growth in a cell viability assay.

[33] = tested on: Raji; experiment: cells; type: functional, cell-based, Homo sapiens; details: Homo sapiens, Raji;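 note: cell viability assay measuring inhibition of Raji cell growth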
Description: SANGER: Inhibition of human Raji cell growth in a cell viability assay.

[34] = tested on: S-117; experiment: cells; type: functional, cell-based; details: Homo sapiens
Description: SANGER: Inhibition of human S-117 cell growth in a cell viability assay.

[35] = tested on: SAS; experiment: cells; type: functional, cell-based; details: Homo sapiens;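 note: growth inhibition of SAS cells, read out with a cell viability assay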
Description: SANGER: Inhibition of human SAS cell growth in a cell viability assay.

[36] = tested on: SF-295; experiment: cells; type: functional, cell-based; details: Homo sapiens;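 note: growth inhibition of SF-295 cells, read out with a cell viability assay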
Description: SANGER: Inhibition of human SF295 cell growth in a cell viability assay.

[37] = tested on: SK-N-AS; experiment: cells; type: functional, cell-based; details: Homo sapiens;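 note: growth inhibition of human SK-N-AS cells, measured with a cell viability assay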
Description: SANGER: Inhibition of human SK-N-AS cell growth in a cell viability assay.

[38] = tested on: ST486; experiment: SANGER: Inhibition of human ST486 cell growth in a cell viability assay.; type: functional, cell-based; details: Homo sapiens, ST486
[39] = tested on: SW1088; experiment: cells; type: functional, cell-based; details: Homo sapiens;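 note: growth inhibition of human SW1088 cells, read out by a cell viability assay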
Description: SANGER: Inhibition of human SW1088 cell growth in a cell viability assay.

[40] = tested on: SW1990; experiment: cells; type: functional, cell-based; details: Homo sapiens
Description: SANGER: Inhibition of human SW1990 cell growth in a cell viability assay.

[41] = tested on: SW837; experiment: cells; type: functional, cell-based; details: Homo sapiens;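 note: growth inhibition of SW837 cells, determined with a cell viability assay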
Description: SANGER: Inhibition of human SW837 cell growth in a cell viability assay.

[42] = tested on: TALL-1; experiment: cells; type: functional, cell-based, Homo sapiens; details: Homo sapiens, TALL-1;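 note: growth inhibition of cultured human TALL-1 cells, read out by a cell viability assay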
Description: SANGER: Inhibition of human TALL-1 cell growth in a cell viability assay.

[43] = tested on: 5637; experiment: cells; type: functional, cell-based; details: Homo sapiens
Description: SANGER: Inhibition of human 5637 cell growth in a cell viability assay.

[44] = tested on: 639-V; experiment: cells; type: functional, cell-based; details: Homo sapiens;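 note: growth inhibition of 639-V cells, read out with a cell viability assay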
Description: SANGER: Inhibition of human 639-V cell growth in a cell viability assay.

[45] = tested on: A 172; experiment: cells; type: functional, cell-based; details: Homo sapiens;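 note: growth inhibition of A172 cells, measured with a cell viability readout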
Description: SANGER: Inhibition of human A172 cell growth in a cell viability assay.

[46] = tested on: A2780; experiment: cells; type: functional, cell-based; details: Homo sapiens;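 note: growth inhibition of A2780 cells, read out with a cell viability assay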
Description: SANGER: Inhibition of human A2780 cell growth in a cell viability assay.

[47] = tested on: ABC-1; experiment: cells; type: functional, cell-based; details: Homo sapiens;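 note: growth inhibition of human ABC-1 cells, read out by a cell viability assay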
Description: SANGER: Inhibition of human ABC-1 cell growth in a cell viability assay.

[48] = tested on: ACHN; experiment: cells; type: functional, cell-based; details: Homo sapiens;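 note: cell viability read-out used to gauge how strongly growth of human ACHN cells is suppressed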
Description: SANGER: Inhibition of human ACHN cell growth in a cell viability assay.

[49] = tested on: ARH-77; experiment: cells; type: functional, cell-based, Homo sapiens; details: Homo sapiens, ARH-77;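 note: growth inhibition of ARH-77 cells, read out by a cell viability assay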
Description: SANGER: Inhibition of human ARH-77 cell growth in a cell viability assay.

[50] = tested on: CAL-148; experiment: cells; type: functional, cell-based, Homo sapiens; details: Homo sapiens, CAL-148
Description: SANGER: Inhibition of human CAL-148 cell growth in a cell viability assay.

[51] = tested on: CAL-27; experiment: cells; type: functional, cell-based; details: Homo sapiens;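 note: Viability-based readout, IC50 reflecting inhibition of CAL-27 cell growth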
Description: SANGER: Inhibition of human CAL-27 cell growth in a cell viability assay.

[52] = tested on: TE-441-T; experiment: cells; type: functional, cell-based, Homo sapiens; details: Homo sapiens, TE-441-T
Description: SANGER: Inhibition of human TE-441-T cell growth in a cell viability assay.

[53] = tested on: UMUC3; experiment: cells; type: functional, cell-based; details: Homo sapiens;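 note: growth inhibition of human UM-UC-3 cells, read out with a cell viability assay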
Description: SANGER: Inhibition of human UM-UC-3 cell growth in a cell viability assay.

[54] = tested on: VMRC-RCZ; experiment: cells; type: functional, cell-based; details: Homo sapiens
Description: SANGER: Inhibition of human VMRC-RCZ cell growth in a cell viability assay.

[55] = tested on: YKG-1; experiment: cells; type: functional, cell-based; details: Homo sapiens;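 note: cell growth inhibition, read out with a viability assay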
Description: SANGER: Inhibition of human YKG-1 cell growth in a cell viability assay.

[56] = tested on: CESS; experiment: SANGER: Inhibition of human CESS cell growth in a cell viability assay.; type: functional, cell-based; details: Homo sapiens, CESS

Question: With `OC[C@H](Cc1ccccc1)Nc1nc(Oc2ccc3c(c2)CCC3)nc2c1ncn2Cc1ccc(-c2ccccc2)cc1` as the molecule, how does the IC50 [1] read?
Answer: Its IC50 is over 10.2 µM.

Question: What about the IC50 [2] of the same molecule?
Answer: Its IC50 is over 10.2 µM.

Question: What about the IC50 [3] of the same molecule?
Answer: Its IC50 is over 10.2 µM.

Question: What about the IC50 [4] of the same molecule?
Answer: The IC50 was over 10.2 µM.

Question: What about the IC50 [5] of the same molecule?
Answer: The IC50 was over 10.2 µM.

Question: And the IC50 [6]?
Answer: Its IC50 is over 10.2 µM.

Question: What about the IC50 [7] of the same molecule?
Answer: The IC50 was over 10.2 µM.

Question: What about the IC50 [8] of the same molecule?
Answer: The IC50 was over 10.2 µM.

Question: And the IC50 [9]?
Answer: The IC50 was over 10.2 µM.

Question: What about the IC50 [10] of the same molecule?
Answer: The IC50 was over 10.2 µM.

Question: What about the IC50 [11] of the same molecule?
Answer: The IC50 was 8.45 µM.

Question: What about the IC50 [12] of the same molecule?
Answer: The IC50 was over 10.2 µM.

Question: And the IC50 [13]?
Answer: Its IC50 is 9.51 µM.

Question: And the IC50 [14]?
Answer: Its IC50 is over 10.2 µM.

Question: What about the IC50 [15] of the same molecule?
Answer: The IC50 was 5.49 µM.

Question: And the IC50 [16]?
Answer: The IC50 was over 10.2 µM.

Question: And the IC50 [17]?
Answer: Its IC50 is over 10.2 µM.

Question: What about the IC50 [18] of the same molecule?
Answer: The IC50 was over 10.2 µM.

Question: And the IC50 [19]?
Answer: The IC50 was over 10.2 µM.

Question: And the IC50 [20]?
Answer: Its IC50 is 9.3 µM.

Question: And the IC50 [21]?
Answer: Its IC50 is over 10.2 µM.

Question: What about the IC50 [22] of the same molecule?
Answer: Its IC50 is over 10.2 µM.

Question: And the IC50 [23]?
Answer: Its IC50 is over 10.2 µM.

Question: What about the IC50 [24] of the same molecule?
Answer: Its IC50 is over 10.2 µM.

Question: What about the IC50 [25] of the same molecule?
Answer: The IC50 was over 10.2 µM.

Question: What about the IC50 [26] of the same molecule?
Answer: The IC50 was 7.39 µM.

Question: And the IC50 [27]?
Answer: The IC50 was 3.89 µM.

Question: What about the IC50 [28] of the same molecule?
Answer: Its IC50 is over 10.2 µM.

Question: What about the IC50 [29] of the same molecule?
Answer: The IC50 was over 10.2 µM.

Question: What about the IC50 [30] of the same molecule?
Answer: The IC50 was over 10.2 µM.

Question: And the IC50 [31]?
Answer: Its IC50 is over 10.2 µM.

Question: And the IC50 [32]?
Answer: Its IC50 is over 10.2 µM.

Question: And the IC50 [33]?
Answer: The IC50 was over 10.2 µM.

Question: And the IC50 [34]?
Answer: The IC50 was 4.88 µM.

Question: And the IC50 [35]?
Answer: The IC50 was 4.8 µM.

Question: And the IC50 [36]?
Answer: The IC50 was 3.23 µM.

Question: And the IC50 [37]?
Answer: Its IC50 is over 10.2 µM.

Question: What about the IC50 [38] of the same molecule?
Answer: The IC50 was over 10.2 µM.

Question: And the IC50 [39]?
Answer: Its IC50 is over 10.2 µM.

Question: And the IC50 [40]?
Answer: The IC50 was over 10.2 µM.

Question: And the IC50 [41]?
Answer: The IC50 was over 10.2 µM.

Question: And the IC50 [42]?
Answer: Its IC50 is over 10.2 µM.

Question: And the IC50 [43]?
Answer: The IC50 was 4.18 µM.

Question: And the IC50 [44]?
Answer: Its IC50 is 1.15 µM.

Question: What about the IC50 [45] of the same molecule?
Answer: The IC50 was 6.16 µM.

Question: What about the IC50 [46] of the same molecule?
Answer: The IC50 was over 10.2 µM.

Question: What about the IC50 [47] of the same molecule?
Answer: The IC50 was over 10.2 µM.

Question: What about the IC50 [48] of the same molecule?
Answer: Its IC50 is over 10.2 µM.

Question: And the IC50 [49]?
Answer: The IC50 was over 10.2 µM.

Question: What about the IC50 [50] of the same molecule?
Answer: The IC50 was over 10.2 µM.

Question: And the IC50 [51]?
Answer: Its IC50 is over 10.2 µM.

Question: What about the IC50 [52] of the same molecule?
Answer: The IC50 was over 10.2 µM.

Question: And the IC50 [53]?
Answer: Its IC50 is over 10.2 µM.

Question: What about the IC50 [54] of the same molecule?
Answer: Its IC50 is over 10.2 µM.

Question: And the IC50 [55]?
Answer: The IC50 was 7.11 µM.

Question: And the IC50 [56]?
Answer: Its IC50 is over 10.2 µM.
